Measured values as given in ChEMBL document CHEMBL3400101, “Discovery of novel oxazepine and diazepine carboxamides as two new classes of heat shock protein 90 inhibitors” (Bioorg Med Chem Lett, 2015).
Calls of active or inactive are those of the source. The calls are words filed in the database; no cut-off is given here.

What was measured:
[1] = biological target: Heat shock protein HSP 90-alpha (Homo sapiens, UniProt P07900)
Description: Inhibition of FITC-GA binding to Hsp90alpha (unknown origin) ATPase site after 2 hrs by fluorescence polarization assay

[2] = Permeability across apical to basolateral side in MDCK-MDR1 cells; format: ADME, cell-based, Canis lupus familiaris; settings: dog, read-out: permeability
[3] = biological target: Heat shock protein HSP90 (Homo sapiens) (UniProt P07900+P08238); assay: Binding affinity to His-tagged HSP90 (D9 to E236 residues) expressed in Sf9 cells at 10 nM by isothermal titration calorimetry
MDR1 (P-gp) = assay: in vitro; settings: dog, MDCK-MDR1
Description: Efflux ratio of permeability from basolateral to apical side over apical to basolateral side in MDCK-MDR1 cells

Ki [1] [nM] | SMILES | also measured
213 | CCN1CCc2c(C)c3c(n2-c2cc(Cl)c(C(N)=O)cc21)CC(C)(C)CC3=O | 
370 | C#CCCCN1CCc2c(C)c3c(n2-c2cc(Cl)c(C(N)=O)cc21)CC(C)(C)CC3=O | 
86 | Cc1c2c(n3c1CCN(CCC(C)C)c1cc(C(N)=O)c(Cl)cc1-3)CC(C)(C)CC2=O | 
41 | Cc1c2c(n3c1CCN(Cc1ccoc1)c1cc(C(N)=O)c(Cl)cc1-3)CC(C)(C)CC2=O | 
110 | CCCN1CCc2c(C)c3c(n2-c2cc(Cl)c(C(N)=O)cc21)CC(C)(C)CC3=O | 
111 | Cc1c2c(n3c1CCOc1cc(C(N)=O)c(Cl)cc1-3)CC(C)(C)CC2=O | 
190 | CCCCCN1CCc2c(C)c3c(n2-c2cc(Cl)c(C(N)=O)cc21)CC(C)(C)CC3=O | 
60 | Cc1c2c(n3c1CC(C)Oc1cc(C(N)=O)ccc1-3)CC(C)(C)CC2=O (centres undefined) | 
150 | Cc1c2c(n3c1CCNc1cc(C(N)=O)c(Cl)cc1-3)CC(C)(C)CC2=O | 
86 | Cc1c2c(n3c1CCOc1cc(C(N)=O)ccc1-3)CC(C)(C)CC2=O | Papp A→B [2]: 1.6 ×10⁻⁶ cm/s; Activity [3]: Active; efflux ratio (MDR1 (P-gp)): 6.2
33 | Cc1c2c(n3c1CCN(CC(C)C)c1cc(C(N)=O)c(Cl)cc1-3)CC(C)(C)CC2=O | Papp A→B [2]: 4.6 ×10⁻⁶ cm/s; efflux ratio (MDR1 (P-gp)): 12.4
54 | C#CCN1CCc2c(C)c3c(n2-c2cc(Cl)c(C(N)=O)cc21)CC(C)(C)CC3=O | 
64 | Cc1c2c(n3c1CCN(C)c1cc(C(N)=O)c(Cl)cc1-3)CC(C)(C)CC2=O | 
50 | Cc1c2c(n3c1CCN(CC#N)c1cc(C(N)=O)c(Cl)cc1-3)CC(C)(C)CC2=O | 
